In patent US20220370001A1, “INTESTINAL DIAGNOSTIC SCREENING DEVICE AND METHOD FOR TARGETED GASTROINTESTINAL THERAPY” (AJM MED-I-CAPS LTD, priority 2019, published 2022):

Assays:
[1] = Fluorescence excitation and emission spectra; type: physicochemical
Source text: FIG. 2A is a graph of Near-Infra-Red fluorescence absorbance and emission spectra of CF750 at varying wavelengths, according to an example embodiment of the present disclosure. CF750 has a NIRF peak excitation (solid line) and a peak emission (dotted line) at 760 nm and 780 nm, respectively. Likewise, FIG. 2B is a graph of near-infra-red fluorescence absorbance and emission spectra of IRDye® CW800, according to an example embodiment of the present disclosure. IRDye® CW800 has a peak NIRF excitation and a peak NIRF emission at 774 nm and 789 nm, respectively. FIG. 2C is a graph of absorbance and emission spectra of anticancer drug doxorubicin at varying wavelengths, according to an example embodiment of the present disclosure. Doxorubicin has a peak excitation and a peak emission at 470 nm and 550 nm, respectively.
DSA (3 mg) is mixed with 800 μL of 1:1 dichloromethane and methanol in a glass vial. IRDye® 800CW NHS ester (0.5 mg) was dissolved in methanol (200 μL) then immediately combined with the lipid solution. The mixture is covered to protect it from light and left on a vortex mixer for 2.5 h. The solvent is then reduced in vacuum, dissolved in minimal amount of chloroform and applied to a silica micro-column (˜3 mL) also in chloroform. The unbound fraction is reapplied several times, before elution and washing with the same solvent. Excess DSA and unreacted dye material is retained on the column and the latter is estimated at <10% of the coloured fraction. The unbound product is dried to a film and stored as a solution in 1 mL chloroform.

[2] = reported value for the free dye; cited from earlier work

peak emission (Emmax) [1] [nm] | peak excitation (Exmax) [1] [nm] | Structure (SMILES) | Emmax, reported value [2] [nm] | Exmax, reported value [2] [nm]
550 | 470 | COc1cccc2c1C(=O)c1c(O)c3c(c(O)c1C2=O)C[C@@](O)(C(=O)CO)C[C@@H]3O[C@H]1C[C@H](N)[C@H](O)[C@H](C)O1 [Doxorubicin, doxorubicin] | – | –
789 | 774 | CC1(C)C(/C=C/C2=C(Oc3ccc(S(=O)(=O)O)cc3)C(=C/C=C3/N(CCCCS(=O)(=O)O)c4ccc(S(=O)(=O)[O-])cc4C3(C)C)/CCC2)=[N+](CCCCCC(=O)O)c2ccc(S(=O)(=O)O)cc21 [IRDye® CW800] | 789 | 774
